Literature values as cited in patent publication US20170022153A1, “FUMARATE COMPOUNDS, PHARMACEUTICAL COMPOSITIONS THEREOF, AND METHODS OF USE” (priority 2015, published 2017).

In the case of COC(=O)/C=C/C(=O)OC [DMF, dimethylfumarate], the aqueous solubility is listed as “poor”.
